In patent US20250002492A1, “COMPOSITIONS OF FOLATE ABSORPTION INHIBITORS AND METHODS THEREOF” (THE TEXAS A&M UNIVERSITY SYSTEM, priority 2023, published 2025):

How the values were obtained:
[1] = target: T1, Folate Uptake Transporter (PCFT) in Caco2 cells (Homo sapiens, UniProt Q96NT5); experiment: Folate uptake transporter inhibition in Caco2 cell line ([3H]-folic acid uptake); format: cell-based
T1 construct: These cells express high levels of the PCFT/SLC46A1 receptor; host or cells: Caco-2
T1 sequence (Q96NT5 1-459): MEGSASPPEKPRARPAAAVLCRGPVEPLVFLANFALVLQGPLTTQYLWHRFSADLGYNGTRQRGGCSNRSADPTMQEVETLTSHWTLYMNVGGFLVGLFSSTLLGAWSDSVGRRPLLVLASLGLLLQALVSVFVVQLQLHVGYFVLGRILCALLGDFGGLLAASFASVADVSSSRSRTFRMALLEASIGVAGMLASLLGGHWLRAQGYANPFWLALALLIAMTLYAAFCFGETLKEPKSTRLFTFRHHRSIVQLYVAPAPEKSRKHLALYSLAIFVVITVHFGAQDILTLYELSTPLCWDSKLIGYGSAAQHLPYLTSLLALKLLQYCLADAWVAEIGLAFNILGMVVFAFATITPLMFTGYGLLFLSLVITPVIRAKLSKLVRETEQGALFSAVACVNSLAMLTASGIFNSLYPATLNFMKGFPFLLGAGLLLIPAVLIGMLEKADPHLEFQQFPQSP
Description: Cell plates were prepared using Caco-2 cell culture medium consisting of Dulbecco's Modified Eagle's Medium (DMEM) with high glucose and L-glutamine supplemented with: 10% FBS, 1× penicillin-streptomycin mixture and 1×non-essential amino acids (NEAA) and medium was incubated at 37° C., 5% CO2 for 0.5 hour. Plates were prepared for cell seeding. Caco-2 cells from American Type Culture Collection at passage 44 were cultivated in T-75 flasks in a cell culture incubator set at 37° C., 5% CO2, 95% relative humidity. Cells reached 80-90% confluence before detaching and splitting. Cultivated cells in T-75 flasks were rinsed with 5 mL PBS and aspirated off. Then, 3 mL trypsin/EDTA was added, and cells were incubated at 37° C. for approximately 5 minutes or until the cells detached and floated. Trypsin/EDTA was inactivate by adding excess serum containing medium. Cell suspension was removed and transferred to a conical tube and cells were pelleted by centrifugation at 120×g for 5 minutes. Cells were resuspended in seeding medium at a density of 3×10^4 cells/well in 24-well plates. The plate was incubated for 8-10 days. The medium was replaced every other day, beginning no sooner than 48 hours after initial plating.
The transport buffer (HBSS with 10 mM MES, pH 5.5) was prepared by weighing 1.952 g of MES and 0.35 g sodium hydrogen carbonate and adding into 900 mL of pure water followed by sonication to dissolve the content. Following the transfer of 100 mL of 10×HBSS into the solution. The solution was placed on a stirrer, the pH was slowly adjusted with hydrochloric acid to 5.5, and then the solution was filtered to get HBSS solution (with 10 mM MES, pH 5.5).
The [3H]-folic acid (10 nM) substrate solution was prepared using [3H]-folic acid (1 mCi/ml) diluted with pH 5.5 buffer. Next, the [3H]-folic acid (10 nM) substrate solution+test inhibitor (X μM) and the [3H]-folic acid (10 nM) substrate solution+positive control inhibitor (pemetrexed, 50 μM) were prepared. For the solution without inhibitor, DMSO was diluted with corresponding substrate solution to get the working incubation solution.
The pre-incubation solution was prepared by adding the same final concentration of test compound (X μM) and the known inhibitor (pemetrexed, 50 μM) in pH 5.5 buffer. For the solution without inhibitor, DMSO diluted with in pH 5.5 buffer was used as the vehicle control.
When the 8-10 day Caco-2 cultured cells reached confluence and were differentiated, they were ready to be used for transport studies. The Caco-2 plate was removed from the incubator, and the medium was removed from the 24-well Plates. Next, cells were washed 3 times with 300 μL of pre-warmed pH 5.5 buffer. Then, 300 μL of pre-incubation solution was added into each well and the plate was placed at 37° C. for 30 minutes. The assay was performed in duplicate. After 30 minutes pre-incubation, the pre-incubation solution was aspirated, and 300 μL of pre-warmed working incubation solution was added to start the transporter assay. After 6 minutes incubation, cells were washed by quickly adding/aspirating 300 μL of ice-cold pH 5.5 buffer 4 times. The pH 5.5 buffer was removed and 300 μL of pure water was added into each well. Freeze-thaw in liquid nitrogen and 37° C. incubator was repeated for 3 times to lyse cells. After, centrifugation at 3,300 g was performed for 30 seconds. Next, 50 μL of supernatant was transferred to Isoplate-96 Microplate. 200 μL of scintillation fluid was added to the 50 μL sample and radioactivity was measured by liquid scintillation counting in a MicroBeta 2 scintillation counter for 1 min/sample.
A BCA Kit was used to determine the protein content for each well. Bovine serum albumin at 2, 1, 0.5, 0.25, 0.125, 0.0625, 0.0313, 0.0156, 0.00781 and 0.00391 mg/mL was prepared in Phosphate Buffer Saline (PBS, pH 7.4). 10 μL of supernatant was mixed from the previous step with the same volume of PBS. […]

Caco-2 cells = experiment: Toxicity in Caco-2 cells; format: cell-based; settings: tested at 2-400 μM

CC(=O)N1CCC(C(=O)N2CCN3C(=O)c4cc(-c5ccccc5)ccc4NC(=O)C3C2)CC1 (stereo not drawn) [MPOL_B_1, 2-(1-acetylpiperidine-4-carbonyl)-8-phenyl-1,3,4,12a-tetrahydrobenzo[e]pyrazino[1,2-a][1,4]diazepine-6,12(2H,11H)-dione]
inhibition at 50 µM ([1]; Caco-2, pH 5.5, test conc. 50 μM, [3H]-folic acid 10 nM, 30 min pre-incubation, 6 min incubation, read-out: Percentage inhibition (%)): 42.3%
effect on folate transport / uptake ([1]; Caco-2 cells, 50 μM, pH 5.5): inhibit folate uptake
toxicity (Caco-2 cells): not toxic
